ChEMBL document CHEMBL1128825, “Synthetic inhibitors of interleukin-6 II: 3,5-diaryl pyridines and meta-terphenyls” (Bioorg Med Chem Lett, 1995)
Activity calls are given as the source filed them. The rule behind the calls is not given here.

Key:
WEHI265.1 [1] = test: In vitro inhibitory activity against lipopolysaccharide (LPS)-induced IL-6 production in murine myelomonocytic uM; assay type: functional, Mus musculus; design: concentration or dose not given beside the values
WEHI265.1 [2] = test: In vitro inhibitory activity against lipopolysaccharide (LPS) -induced IL-6 production in murine myelomonocytic uM; cytotoxic; assay type: functional, cell-based; settings: Mus musculus
Mus musculus [3] = test: Effective dose required for in vivo inhibition of serum IL-6.; assay type: functional
Mus musculus [4] = test: In vivo inhibition of serum IL-1 after i.p. administration of 25 mpk dose; showed no inhibition; assay type: functional, organism-based
Mus musculus [5] = test: In vivo inhibition of serum IL-5 after i.p. administration of 25 mpk dose; showed no inhibition; assay type: functional, organism-based
Mus musculus [6] = test: In vivo inhibition of serum IL-6 after intraperitoneal administration of 25 mpk dose.; assay type: functional; settings: ip
Mus musculus [7] = species on record: Mus musculus; test: Inhibitory activity against serum IL-6.; assay type: functional, organism-based
Mus musculus [8] = test: In vivo inhibition of TNF- alpha after intraperitoneal administration of 25 mpk dose; showed no inhibition; assay type: functional, organism-based
Mus musculus [9] = test: In vivo inhibition of serum IL-6 after peroral administration of 25 mpk dose.; assay type: functional; settings: po

`COc1ccccc1-c1cccc(-c2ccccc2OC)c1` gave an Inhibition (WEHI265.1 [1]) of 22%.
`Oc1ccc(-c2cccnc2)cc1` showed an Inhibition (WEHI265.1 [1]) of 0%.
With `COc1ccc(-c2cccc(-c3ccc(OC)cc3)c2)cc1` the Inhibition (WEHI265.1 [1]) was 75%.
For `Fc1ccc(-c2ccc(-c3ccc(F)cc3)nc2)cc1`, the Inhibition (WEHI265.1 [1]) was 47%.
`Oc1ccc(-c2cncc(-c3ccc(O)cc3)c2Cl)cc1` showed an Inhibition (WEHI265.1 [1]) of 60%.
`Oc1ccc(-c2cnc(O)c(-c3ccc(O)cc3)c2)cc1` showed an Inhibition (WEHI265.1 [1]) of 49%.
`CN(C)Cc1ccc(-c2cccc(-c3ccc(CN(C)C)cc3)c2)cc1` was tested, and the inhibition (WEHI265.1 [2]) was “Toxic”.
In the case of `Fc1ccc(-c2cncc(-c3ccc(F)cc3)c2)cc1`, the Inhibition (WEHI265.1 [1]) is reported as 44%.
For `Oc1ccccc1-c1cncc(-c2ccccc2O)c1`, the Inhibition (WEHI265.1 [1]) was 23%.
Work on `Oc1cccc(-c2cncc(-c3cccc(O)c3)c2)c1` yielded an Inhibition (WEHI265.1 [1]) of 59%.
With `N#Cc1ncc(-c2ccc(O)cc2)cc1-c1ccc(O)cc1` the Inhibition (WEHI265.1 [1]) was 40%.
Molecule `Oc1cccc(-c2cccc(-c3cccc(O)c3)c2)c1` has an Inhibition (WEHI265.1 [1]) of 21%.
`Fc1ccc(-c2cccc(-c3ccc(F)cc3)n2)cc1` gave an Inhibition (WEHI265.1 [1]) of 44%.
Work on `Oc1ccc(-c2ccc(-c3ccc(O)cc3)nc2)cc1` yielded an Inhibition (WEHI265.1 [1]) of 27%.
Molecule `Oc1ccc(-c2cnc(Cl)c(-c3ccc(O)cc3)c2)cc1` has an Inhibition (WEHI265.1 [1]) of 61%.
For `Oc1ccc(-c2cccc(-c3ccc(O)cc3)c2)cc1`, the ED50 (Mus musculus [3]) was 1.5 mg/kg, the Activity (Mus musculus [4]) was “inactive” and the Activity (Mus musculus [5]) was “inactive”. The inhibition in vivo at 25 mg/kg (Mus musculus [6]) was 88%, the Inhibition (WEHI265.1 [1]) was 85% and the IC50 (Mus musculus [7]) was 1.5 µM. The Activity (Mus musculus [8]) was “inactive”.
Work on `Oc1ccc(-c2cc(-c3ccc(O)cc3)c(Cl)nc2Cl)cc1` yielded an Inhibition (WEHI265.1 [1]) of 52%.
`COc1ccc(-c2cccc(-c3ccc(OC)cc3)n2)cc1` showed an Inhibition (WEHI265.1 [1]) of 55%.
For `Oc1ccc(-c2cncc(-c3ccc(O)cc3)c2)cc1`, the inhibition in vivo at 25 mg/kg (Mus musculus [9]) was 71%, the ED50 (Mus musculus [3]) was 2.8 mg/kg and the Activity (Mus musculus [4]) was “inactive”. The Activity (Mus musculus [5]) was “inactive”, the inhibition in vivo at 25 mg/kg (Mus musculus [6]) was 63% and the Inhibition (WEHI265.1 [1]) was 73%. The IC50 (Mus musculus [7]) was 0.4 µM and the Activity (Mus musculus [8]) was “inactive”.
With `Oc1ccc(-c2cncc(Cl)c2)cc1` the Inhibition (WEHI265.1 [1]) was 0%.
`COc1ccc(-c2cncc(-c3ccc(OC)cc3)c2)cc1` was tested, and the Inhibition (WEHI265.1 [1]) was 0%.
Work on `Oc1ccccc1-c1cccc(-c2ccccc2O)c1` yielded an Inhibition (WEHI265.1 [1]) of 21%.
`Cc1cncc(-c2ccc(O)cc2)c1` gave an Inhibition (WEHI265.1 [1]) of 7%.
`[O-][n+]1cc(-c2ccc(O)cc2)cc(-c2ccc(O)cc2)c1` gave an Inhibition (WEHI265.1 [1]) of 37%.
With `Oc1ccc(-c2cncc(-c3ccc(O)cc3)n2)cc1` the Inhibition (WEHI265.1 [1]) was 55%.
With `COc1cccc(-c2cccc(-c3cccc(OC)c3)c2)c1` the Inhibition (WEHI265.1 [1]) was 24%.
`Oc1ccc(-c2cccc(-c3ccc(O)cc3)n2)cc1` gave an Inhibition (WEHI265.1 [1]) of 23%.
Molecule `c1ccc(-c2cncc(-c3ccccc3)c2)cc1` has an Inhibition (WEHI265.1 [1]) of 8%.
In the case of `CN(C)Cc1ccc(-c2cncc(-c3ccc(CN(C)C)cc3)c2)cc1`, the Inhibition (WEHI265.1 [1]) is reported as 60%.
`COc1ccc(-c2ccc(-c3ccc(OC)cc3)nc2)cc1` was tested, and the Inhibition (WEHI265.1 [1]) was 30%.
